In patent publication US20250243194A1, “ANTAGONIST OF ADENOSINE RECEPTORS” (AdoRx Therapeutics Limited, priority 2022, published 2025):
Where two headings read alike, the source gives them in different places.

Experiments:
[1] = target: human Adenosine A2b receptor (Homo sapiens (Human), UniProt P29275); test: Adenosine receptor TR-FRET binding assay (A2b); details: inhibition of binding of 30 nM CA200645; CHO cell membranes; Ki from IC50 by Cheng and Prusoff
Summary of the method: (§1)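 Compounds incubated 2 h at room temperature with membranes from CHO cells expressing terbium-labelled human receptors, competing with the fluorescent antagonist CA200645 (30 nM for A2b; 100 nM for A1, A2a and A3). Read by TR-FRET (665/620 nm); non-specific binding defined with 10 μM XAC. Ki derived from IC50 via Cheng-Prusoff.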

[2] = tested on: CD8+ T cells in human whole blood; test: Measurement of pCREB in CD8+ T cells in human whole blood; assay type: cell-based; details: T-cell, 3 μM NECA, rolipram, FACS
Experimental: Heparinised human whole blood was pre-incubated at 37° C. with serial dilutions of A2a antagonists for 20 min. and the phosphodiesterase inhibitor rolipram to amplify the pCREB response. The adenosine receptor agonist NECA is then added at a final concentration of 3 μM and following a 60 min incubation the blood is fixed and red blood cells lysed. White blood cells are isolated, permeabilized and stained with directly conjugated fluorescent antibodies to phospho-CREB (Alexa Fluor 488) and CD8 (Alexa Fluor 647) and the level of phospho-CREB in CD8+ T cells is measured by FACS using a BD Accuri C6 Flow Cytometer.

[3] = target: human Adenosine A2a receptor (Homo sapiens (Human), UniProt P29274); test: Adenosine receptor TR-FRET binding assay (A2a)
Sequence of human Adenosine A2a receptor (P29274 whole entry): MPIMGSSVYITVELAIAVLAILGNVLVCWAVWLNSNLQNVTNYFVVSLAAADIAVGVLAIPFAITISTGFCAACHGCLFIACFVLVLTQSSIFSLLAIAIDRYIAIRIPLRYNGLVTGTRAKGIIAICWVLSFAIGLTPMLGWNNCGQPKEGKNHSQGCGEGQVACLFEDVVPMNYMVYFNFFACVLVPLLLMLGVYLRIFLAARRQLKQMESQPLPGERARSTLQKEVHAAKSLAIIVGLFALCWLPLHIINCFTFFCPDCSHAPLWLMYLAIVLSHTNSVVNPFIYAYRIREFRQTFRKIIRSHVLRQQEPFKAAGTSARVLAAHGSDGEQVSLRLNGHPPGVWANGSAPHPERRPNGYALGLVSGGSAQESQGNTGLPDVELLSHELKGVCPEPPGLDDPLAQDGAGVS
Summary of the method: as §1

human PBMCs = test: CD3/CD28 stimulated IL-2 release NECA reversal assay in human PBMCs; assay type: cell-based; details: PBMC, reversal of 1 uM NECA, 24 hours
Experimental: Blood is drawn from healthy volunteers using sodium citrate as the anticoagulant (0.3% final concentration). After centrifugation of the blood over Histopaque-1077, PBMCs are collected from the Histopaque/plasma interface and washed twice in PBS (300 g for 10 mins at room temp). Cells are plated at 50,000 cells/well in 150 μl RPMI/10% FCS in 96-well cell culture plates that have been precoated with 1 μg/ml CD3 antibody. 50 μl diluted compound mix is added to the cells, to obtain final concentrations of 1 μg/ml CD28 antibody, 1 uM NECA and 0.003-10 μM adenosine receptor antagonist. Assay plates are incubated for 24 hours at 37° C. in a humidified incubator. Culture supernatant is tested for IL-2 levels using the human IL-2 Tissue Culture Kit (Meso Scale Discovery).

[4] = tested on: immature monocyte-derived dendritic cells (MoDC); test: MoDC pCREB assay; assay type: cell-based; details: Homo sapiens, Dendritic cell, CD209+/CD86-low cells, 1 μM NECA, 20 μM rolipram, largely specific to A2B
Experimental: Monocytes are isolated from human whole blood using CD14 microbeads (Miltenyi Biotec 130-050-201) and differentiated to immature monocyte-derived dendritic cells (MoDC) by culture for 5 days in Mo-DC Differentiation Medium (Miltenyi Biotec 130-094-812). MoDCs are seeded into fresh medium into U bottomed 96 well culture plates and pre-incubated at 37° C. with serial dilutions of A2A/B antagonists for 15 min. At the same time the cells are co-incubated with the phosphodiesterase inhibitor rolipram (final concentration of 20 μM) to amplify the subsequent pCREB response. Adenosine receptor agonist NECA is then added at 1 μM final concentration, leading to an increase in CREB phosphorylation. Following a 45 min incubation at 37° C., the cells are fixed, permeabilized and stained with directly conjugated fluorescent antibodies to phospho-CREB (Alexa Fluor 488), CD209 (PerCP-Cy5.5) and CD86 (APC). Samples are analysed by FACS to measure fluorescence in corresponding channels, and also forward and Side scatter. The population of CD209+/CD86-low cells corresponding to immature dendritic cells is gated for analysis of pCREB levels.
Approximately 5% of the analysed cells are positive for detection of pCREB in the absence of agonist stimulation, representing the background signalling of all pathways upstream of CREB. Following NECA stimulation this is increased to ˜80% pCREB+ve, and this increase is essentially fully reversible by A2B or dual A2A/B antagonists.
IC50 is represented as the point of inflection of a sigmoidal curve

[5] = target: human Adenosine A1 receptor (Homo sapiens (Human), UniProt P30542); test: Adenosine receptor TR-FRET binding assay (A1)
Sequence of human Adenosine A1 receptor (P30542 whole entry): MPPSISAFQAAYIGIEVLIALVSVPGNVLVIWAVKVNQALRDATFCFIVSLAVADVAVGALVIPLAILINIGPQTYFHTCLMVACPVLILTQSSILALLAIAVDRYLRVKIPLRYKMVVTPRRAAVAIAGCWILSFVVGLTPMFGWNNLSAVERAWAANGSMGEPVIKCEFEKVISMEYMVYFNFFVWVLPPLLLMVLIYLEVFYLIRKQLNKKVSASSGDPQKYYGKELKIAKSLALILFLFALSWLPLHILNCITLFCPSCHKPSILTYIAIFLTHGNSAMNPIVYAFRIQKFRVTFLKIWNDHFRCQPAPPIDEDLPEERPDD
Summary of the method: as §1

[6] = target: human Adenosine A3 receptor (Homo sapiens (Human), UniProt P0DMS8); test: Adenosine receptor TR-FRET binding assay (A3); details: inhibition of binding of 100 nM CA200645; CHO cell membranes; Ki from IC50 by Cheng and Prusoff
Sequence of human Adenosine A3 receptor (P0DMS8 whole entry): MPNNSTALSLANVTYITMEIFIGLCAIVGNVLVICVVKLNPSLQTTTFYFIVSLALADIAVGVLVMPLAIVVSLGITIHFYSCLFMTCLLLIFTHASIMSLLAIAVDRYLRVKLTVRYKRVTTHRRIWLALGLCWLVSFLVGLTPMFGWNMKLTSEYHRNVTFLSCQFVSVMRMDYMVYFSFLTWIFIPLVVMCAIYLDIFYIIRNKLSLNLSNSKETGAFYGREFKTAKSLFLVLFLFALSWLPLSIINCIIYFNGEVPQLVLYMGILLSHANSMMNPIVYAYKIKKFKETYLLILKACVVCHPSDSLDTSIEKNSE
Experimental: All FRET binding experiments were conducted at room temperature in white 384-well plates, in assay binding buffer containing 1× LabMed (Cisbio, France), 100 μg/mL saponin, 1% DMSO and 0.02% pluronic acid. Binding of the fluorescently labelled Adenosine receptor antagonist XAC (CA200645, FRET acceptor) to terbium-labelled A1, A2a, A2b and A3 adenosine receptors (FRET donors) was detected by time-resolved FRET due to the close proximity of the donor and acceptor in a binding event. To investigate the ability of unlabelled test compounds to bind to Adenosine A1, A2a, A2b and A3 receptors, dose response curves were constructed that determined the ability of a range of concentrations to inhibit the binding of 30 nM CA200645 to the A2b receptor and 100 nM CA200645 to the A1, A2a, and A3 receptor.
Serial dilution (1:3 dilutions) of test compounds in neat DMSO and transfer of a 400 nL sample of test compound into the assay plate was carried out using the Mosquito (TTP Labtech, UK). The compound samples were incubated for 2 hours at room temperature with a fixed concentration of CA200645 defined for each receptor (see above) and CHO cell membranes containing the human Adenosine A1 (0.5 μg/well), A2a (0.3 μg/well), A2b (1 μg/well) or A3 (1 μg/well) receptor in 40 μL of assay buffer. Total and non-specific binding of CA200645 was determined in the absence and presence of 10 μM XAC, respectively. Following 2 hours incubation, the level of CA200645 binding was detected on a Pherastar FSX (BMG Labtech, Germany) using standard TR-FRET settings. The terbium donor was excited with three laser flashes at a wavelength of 337 nm, and donor and acceptor emission was detected at 620 nm and 665 nm wavelengths, respectively. FRET ratios were obtained by multiplying the acceptor/donor ratio value by 10,000. Specific binding was determined by subtracting the non-specific binding FRET ratio from the total binding FRET ratio. Compound IC50 curves were analysed using GraphPad Prism 7.0 (GraphPad, USA) and Ki affinity values were determined from the obtained IC50 values using the method of Cheng and Prusoff.

[7] = inhibition of binding of 100 nM CA200645, CHO cell membranes, Ki from IC50 by Cheng and Prusoff

Sequence of human Adenosine A2b receptor (P29275 whole entry): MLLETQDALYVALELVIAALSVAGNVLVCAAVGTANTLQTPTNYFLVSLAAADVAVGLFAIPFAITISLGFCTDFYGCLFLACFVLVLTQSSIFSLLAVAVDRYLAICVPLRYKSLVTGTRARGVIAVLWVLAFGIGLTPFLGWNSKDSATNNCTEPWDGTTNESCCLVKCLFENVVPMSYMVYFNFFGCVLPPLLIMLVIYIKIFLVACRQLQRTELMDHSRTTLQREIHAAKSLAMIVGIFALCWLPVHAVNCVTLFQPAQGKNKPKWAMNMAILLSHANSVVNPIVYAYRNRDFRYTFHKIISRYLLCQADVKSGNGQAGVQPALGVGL

SMILES | Ki [1] [nM] | IC50 [2] [nM] | Ki [3, 7] [nM] | IC50 (human PBMCs) [nM] | IC50 [4] [nM] | Ki [5, 7] [nM] | Ki [3] [nM] | Ki [5] [nM] | Ki [6] [nM]
Cc1ncnc2c(C)cc(-c3sc(NC(=O)N4CC5(COC5)C4)nc3-c3cccc(C#N)c3)cc12 [Example 20, N-[4-(3-Cyanophenyl)-5-(4,8-dimethylquinazolin-6-yl)thiazol-2-yl]-2-oxa-6-azaspiro[3.3]heptane-6-carboxamide] | 1 | 105 | 0.18 | 0.8 | 3 | 8 |  |  | 
Cc1ncnc2ccc(-c3sc(NC(=O)N4CCC5(CC4)CNC(=O)C5)nc3-c3cccc(C#N)c3)cc12 [Example 7.17, N-[4-(3-Cyanophenyl)-5-(4-methylquinazolin-6-yl)thiazol-2-yl]-3-oxo-2,8-diazaspiro[4.5]decane-8-carboxamide] | 1.9 | 4 | 0.2 | 1.1 | 2 | 13 |  |  | 
Cc1ncnc2ccc(-c3sc(NC(=O)N4CC[C@@H](C(C)(C)O)C4)nc3-c3cccc(C#N)c3)cc12 [Example 7, (3R)—N-[4-(3-Cyanophenyl)-5-(4-methylquinazolin-6-yl)thiazol-2-yl]-3-(1-hydroxy-1-methyl-ethyl)pyrrolidine-1-carboxamide] | 1.4 | 10 | 0.1 | 0.3 | 3 |  |  |  | 
Cc1ncnc2ccc(-c3sc(NC(=O)N4CC5(CN(C)C5)C4)nc3-c3cccc(C#N)c3)cc12 [Example 7.4, N-[4-(3-Cyanophenyl)-5-(4-methylquinazolin-6-yl)thiazol-2-yl]-6-methyl-2,6-diazaspiro[3.3]heptane-2-carboxamide] | 6.4 | 60 | 1.83 | 3 | 4 | 345 |  |  | 
Cc1ncnc2ccc(-c3sc(NC(=O)N4CC5(CNCCO5)C4)nc3-c3cccc(C#N)c3)cc12 [Example 4.1, N-[4-(3-Cyanophenyl)-5-(4-methylquinazolin-6-yl)thiazol-2-yl]-5-oxa-2,8-diazaspiro[3.5]nonane-2-carboxamide] | 1.1 | 8 |  | 1.8 | 2 |  | 0.14 | 42 | 
N#Cc1cccc(-c2nc(NC(=O)N3CCOCC3)sc2-c2ccn3nccc3c2)c1 [Example 33, N-[4-(3-Cyanophenyl)-5-pyrazolo[1,5-a]pyridin-5-yl-thiazol-2-yl]morpholine-4-carboxamide] | 0.5 | 219 | 0.36 | 6.4 |  | 0.2 |  |  | 758
Cc1ncnc2ccc(-c3sc(NC(=O)N4CCC(C)(C#N)C4)nc3-c3cccc(C#N)c3)cc12 (centres unmarked) [Example 7.25, 3-Cyano-N-[4-(3-cyanophenyl)-5-(4-methylquinazolin-6-yl)thiazol-2-yl]-3-methyl-pyrrolidine-1-carboxamide] | 1.1 | 7 | 0.12 | 0.3 | 2 | 3 |  |  | 
Cc1ncnc2ccc(-c3sc(NC(=O)N4CC[C@H](C(C)(C)O)C4)nc3-c3cccc(C#N)c3)cc12 [Example 5, (3S)—N-[4-(3-Cyanophenyl)-5-(4-methylquinazolin-6-yl)thiazol-2-yl]-3-(1-hydroxy-1-methyl-ethyl)pyrrolidine-1-carboxamide] | 1.7 | 15 | 0.17 | 0.4 | 3 |  |  |  | 
Cc1ncnc2ccc(-c3sc(NC(=O)N4CCNCC4CC4CC4)nc3-c3cccc(C#N)c3)cc12 (centres unmarked) [Example 2.1, N-[4-(3-Cyanophenyl)-5-(4-methylquinazolin-6-yl)thiazol-2-yl]-2-(cyclopropylmethyl)piperazine-1-carboxamide] | 2.5 | 50 | 0.25 | 1.8 | 3 | 12 |  |  | 
Cc1ncnc2ccc(-c3sc(NC(=O)N4CC5(C4)CC(C)(O)C5)nc3-c3cccc(C#N)c3)cc12 [Example 7.24, N-[4-(3-Cyanophenyl)-5-(4-methylquinazolin-6-yl)thiazol-2-yl]-6-hydroxy-6-methyl-2-azaspiro[3.3]heptane-2-carboxamide] | 1.3 | 12 | 0.14 | 0.7 | 2 | 18 |  |  | 
Cc1ncnc2ccc(-c3sc(NC(=O)N4CCC(C)(C#N)CC4)nc3-c3cccc(C#N)c3)cc12 [Example 6, 4-Cyano-N-[4-(3-cyanophenyl)-5-(4-methylquinazolin-6-yl)thiazol-2-yl]-4-methyl-piperidine-1-carboxamide] | 0.8 | 11 | 0.07 | 0.1 | 2 | 3 |  |  | 
Cc1ncnc2ccc(-c3sc(NC(=O)N4CCC5(CC4)COCCN5)nc3-c3cccc(C#N)c3)cc12 [Example 2, N-[4-(3-Cyanophenyl)-5-(4-methylquinazolin-6-yl)thiazol-2-yl]-4-oxa-1,9-diazaspiro[5.5]undecane-9-carboxamide] | 2.8 | 20 | 0.32 |  | 3 | 70 |  |  | 
Cc1ncnc2ccc(-c3sc(NC(=O)N4CCC(N5CCNCC5)CC4)nc3-c3cccc(C#N)c3)cc12 [Example 3, N-[4-(3-Cyanophenyl)-5-(4-methylquinazolin-6-yl)thiazol-2-yl]-4-piperazin-1-yl-piperidine-1-carboxamide] | 7.7 | 70 | 2.26 |  | 6 | 554 |  |  | 
